According to patent US20180066070A1, “ACETYLATED PCSK9” (UNIVERSITAT ZURICH, priority 2015, published 2018):
Each block holds one compound with its values, some of them ahead of it.

How the values were obtained:
SIRT1 [1] = biological target: T1, SIRT1 (Homo sapiens, UniProt Q96EB6); assay: Fluorogenic peptide deacetylation assay; format: biochemical; settings: increasing concentrations of SRT1720 (1 μM, 10 μM, 100 μM, 1 mM), 1 μg SIRT1, acetyl-Lys421 PCSK9-AMC peptide, compared to negative and positive controls (FIG. 4)
T1 sequence (Q96EB6 1-747): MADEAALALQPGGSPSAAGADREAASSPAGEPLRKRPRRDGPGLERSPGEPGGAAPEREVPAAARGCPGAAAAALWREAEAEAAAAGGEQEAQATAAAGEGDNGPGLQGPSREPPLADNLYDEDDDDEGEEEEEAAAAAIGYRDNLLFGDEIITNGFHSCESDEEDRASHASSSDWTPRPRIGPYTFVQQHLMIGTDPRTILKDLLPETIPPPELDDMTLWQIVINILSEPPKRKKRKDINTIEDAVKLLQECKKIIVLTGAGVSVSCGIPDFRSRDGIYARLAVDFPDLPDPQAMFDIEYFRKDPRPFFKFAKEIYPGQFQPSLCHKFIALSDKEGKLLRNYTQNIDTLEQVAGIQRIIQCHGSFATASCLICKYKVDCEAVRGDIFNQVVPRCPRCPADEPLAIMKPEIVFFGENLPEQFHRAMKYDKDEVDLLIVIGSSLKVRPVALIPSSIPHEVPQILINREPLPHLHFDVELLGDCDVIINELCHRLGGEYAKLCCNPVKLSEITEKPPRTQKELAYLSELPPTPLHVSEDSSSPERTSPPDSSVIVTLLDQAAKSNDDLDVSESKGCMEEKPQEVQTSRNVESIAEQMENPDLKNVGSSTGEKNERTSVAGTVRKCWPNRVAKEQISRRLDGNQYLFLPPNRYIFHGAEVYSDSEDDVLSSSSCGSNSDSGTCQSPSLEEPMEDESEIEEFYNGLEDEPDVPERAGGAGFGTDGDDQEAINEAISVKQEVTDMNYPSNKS
Experimental: To analyse the deacetylation activity of SIRT1 on PCSK9, an acetylated PCSK9 peptide was designed with acetylated lysine 421 (Lys421)-tagged to an AMC fluorophore. The acetyl-PCSK9-AMC peptide was dissolved in DMSO and incubated with 1 μg SIRT1 with 1 μM, 10 μM, 100 μM and 1 mM SIRT1 activator SRT1720 in the deacetylation assay buffer containing 50 mM Tris-HCl [pH8.0], 1 mM MgCl2, 125 mM NaCl, 2.5 mM potassium chloride and 500 μM NAD+. Reactions were allowed to proceed for an incubation period of 1 hr at 37° C. Prior to quenching the reaction, 2 mM nicotinamide was added to 1× developing buffer (BML-KI176-1250, Enzo Lifesciences) in the deacetylation assay buffer (50 mM Tris-HCl [pH8.0], 1 mM MgCl2, 125 mM NaCl, 2.5 mM potassium chloride). At each time point, 50 μL of the reaction was removed and mixed with 50 μL of the developer solution. The quenched samples were kept at 37° C. for 45 min prior to fluorescence reading. The release of the fluorescent AMC was measured using a Tecan M200 PRO fluorometric plate reader with an excitation 360 nm and detection of emitted light in the range of […]. All reactions were normalized to control reactions in the absence of β-NAD (Ffinal=F+NAD−F-NAD).

RAW 264.7 macrophages = assay: Activity of acetylated vs deacetylated recombinant PCSK9 on RAW 264.7 macrophages (western blot for LDLR, PCSK9); format: cell-based, murine; settings: recombinant PCSK9 pretreated with pCAF and acetyl-CoA vs SIRT1 and NAD+, 15 mins (FIG. 7)
Experimental: Recombinant PCSK9 pretreated with SIRT1 and NAD+ or pCAF and acetyl-CoA were added on RAW 264.7 macrophages for 15 mins and lysed, separated by SDS-PAGE and blotted for LDLR, PCSK9 and b-actin. Representative bar graphs of LDLR, PCSK9 normalized to b-actin and PCSK9 expression normalized to LDLR expression.
Human HepG2 hepatocytes (American Type Culture Collection, Manassas, Va.) and murine RAW 264.7 cells (Mouse leukaemic monocyte macrophage cell line) were cultured in DMEM containing 10% fetal bovine serum (v/v). AML12 mouse hepatoma cells were cultured in a 1:1 (v/v) mixture of DMEM and Ham's F12 medium supplemented with insulin (5 μg ml-1), transferrin (5 μg ml-1), selenium (5 ng ml-1), dexamethasone (40 ng ml-1), and 10% fetal bovine serum (v/v). Where indicated, AML12 cells were exposed to 10 μM SRT3025 in 1% DMSO (v/v). The cells were maintained in a humidified atmosphere with 5% CO2 at 37° C.
Substrate protein, PCSK9 was incubated with 2 μg of recombinant pCAF and 50 μM acetyl-CoA in 20 μL of acetylation buffer (250 mM Tris-HCl [pH9.0], 20 mM MgCl2, 250 mM NaCl, 2.5 mM DTT). Reaction mixtures were incubated at 37° C. for 1 hour. Reaction was stopped by freezing. […] The reactions were analyzed by western blotting using anti-PCSK9 antibody (Abcam) to verify loading and anti-acetyl lysine (Cell signalling) to verify acetylation.

SIRT1 [2] = biological target: T2, SIRT1 (Mus musculus, UniProt Q923E4); settings: ApoE-/- mice; cited from earlier work
T2 construct: host or cells: ApoE-/- mice (endogenous protein of the animal)
T2 sequence (Q923E4 1-737): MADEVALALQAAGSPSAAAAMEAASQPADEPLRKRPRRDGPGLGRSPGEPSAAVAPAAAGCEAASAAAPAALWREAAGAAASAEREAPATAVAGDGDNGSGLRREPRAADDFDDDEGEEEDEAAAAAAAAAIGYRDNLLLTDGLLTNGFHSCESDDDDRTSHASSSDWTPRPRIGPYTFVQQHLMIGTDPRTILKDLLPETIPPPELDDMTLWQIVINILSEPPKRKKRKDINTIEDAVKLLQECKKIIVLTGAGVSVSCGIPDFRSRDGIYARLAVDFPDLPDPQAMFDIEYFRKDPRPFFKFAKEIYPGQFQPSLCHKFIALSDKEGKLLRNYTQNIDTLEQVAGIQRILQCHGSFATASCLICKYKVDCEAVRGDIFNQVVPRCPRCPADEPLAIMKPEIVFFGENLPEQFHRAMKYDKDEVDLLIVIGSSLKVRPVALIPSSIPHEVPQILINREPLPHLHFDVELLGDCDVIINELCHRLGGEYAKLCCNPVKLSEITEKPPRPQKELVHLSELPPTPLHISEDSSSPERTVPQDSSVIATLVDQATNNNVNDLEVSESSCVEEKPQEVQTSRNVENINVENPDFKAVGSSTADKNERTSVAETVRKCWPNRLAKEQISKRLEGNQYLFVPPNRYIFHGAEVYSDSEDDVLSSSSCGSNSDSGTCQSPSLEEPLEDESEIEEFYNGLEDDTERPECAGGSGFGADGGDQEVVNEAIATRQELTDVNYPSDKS

fluorescence caused by deacetylation of fluorogenic PCSK9 peptide (SIRT1 [1]): increase in fluorescence
Compound: O=C(Nc1ccccc1-c1cn2c(CN3CCNCC3)csc2n1)c1cnc2ccccc2n1 [SRT1720]

Compound: acetyl-PCSK9: Recombinant PCSK9 pretreated with pCAF and acetyl-CoA
activity of PCSK9 (LDLR, PCSK9 expression normalized to b-actin) (RAW 264.7 macrophages): more active

Compound: COCCCc1sc(-c2ccccc2)nc1C(=O)Nc1ccccc1-c1nc2cc(CN3CCCC3)cnc2s1 [SRT3025]
LDL-cholesterol (SIRT1 [2]): reducing LDL-cholesterol
PCSK9 secretion (SIRT1 [2]): reduction in PCSK9 secretion
atherosclerosis (SIRT1 [2]): protects against atherosclerosis
